Activity calls are given as the source filed them. No cut-off for these calls is given here.
Key:
[1] = molecular target: Serine/threonine-protein kinase 10 (Homo sapiens) (UniProt O94804); experiment: Inhibition of LOK Lys2 labeling site harbouring DLKAGNVLMTLEGDIR in human Huh-7 cell lysate at 1 uM by KiNativ Profiling analysis relative to control; assay type: subcellular
[2] = molecular target: Ribosomal protein S6 kinase beta-2 (Homo sapiens) (UniProt Q9UBS0); experiment: Inhibition of p70S6Kb ATP labeling site in human Huh-7 cell lysate at 1 uM by KiNativ Profiling analysis relative to control; assay type: subcellular
Ribosomal protein S6 kinase beta-2 (Homo sapiens), sequence (Q9UBS0 whole entry): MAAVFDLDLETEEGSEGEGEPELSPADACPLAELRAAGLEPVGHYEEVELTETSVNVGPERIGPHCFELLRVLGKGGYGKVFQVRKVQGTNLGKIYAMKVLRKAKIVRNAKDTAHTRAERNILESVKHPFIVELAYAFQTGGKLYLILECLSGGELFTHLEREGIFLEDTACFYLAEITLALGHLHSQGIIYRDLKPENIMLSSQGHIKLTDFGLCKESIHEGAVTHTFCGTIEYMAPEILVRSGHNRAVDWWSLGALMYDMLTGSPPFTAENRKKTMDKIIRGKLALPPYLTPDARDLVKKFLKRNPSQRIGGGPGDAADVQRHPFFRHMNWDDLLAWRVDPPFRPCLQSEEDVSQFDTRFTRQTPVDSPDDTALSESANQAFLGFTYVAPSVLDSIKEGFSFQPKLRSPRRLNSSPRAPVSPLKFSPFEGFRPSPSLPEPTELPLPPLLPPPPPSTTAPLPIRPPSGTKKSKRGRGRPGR

[3] = molecular target: Protein kinase C alpha type (Homo sapiens) (UniProt P17252); experiment: Inhibition of PKCa Lys2 labeling site in human Huh-7 cells at 1 uM by KiNativ Profiling analysis relative to control; assay type: cell-based
[4] = molecular target: Protein-tyrosine kinase 2-beta (Homo sapiens) (UniProt Q14289); experiment: Inhibition of PYK2 (unknown origin) at 10 uM by Ambit Kinomescan binding assay relative to control; values are per cent of control
[5] = molecular target: Serine/threonine-protein kinase 36 (Homo sapiens) (UniProt Q9NRP7); experiment: Inhibition of STK36 (unknown origin) at 10 uM by Ambit Kinomescan binding assay relative to control; values are per cent of control
[6] = molecular target: Wee1-like protein kinase (Homo sapiens) (UniProt P30291); experiment: Inhibition of WEE1 (unknown origin) at 10 uM by Ambit Kinomescan binding assay
Wee1-like protein kinase (Homo sapiens), sequence (P30291 whole entry, looked up): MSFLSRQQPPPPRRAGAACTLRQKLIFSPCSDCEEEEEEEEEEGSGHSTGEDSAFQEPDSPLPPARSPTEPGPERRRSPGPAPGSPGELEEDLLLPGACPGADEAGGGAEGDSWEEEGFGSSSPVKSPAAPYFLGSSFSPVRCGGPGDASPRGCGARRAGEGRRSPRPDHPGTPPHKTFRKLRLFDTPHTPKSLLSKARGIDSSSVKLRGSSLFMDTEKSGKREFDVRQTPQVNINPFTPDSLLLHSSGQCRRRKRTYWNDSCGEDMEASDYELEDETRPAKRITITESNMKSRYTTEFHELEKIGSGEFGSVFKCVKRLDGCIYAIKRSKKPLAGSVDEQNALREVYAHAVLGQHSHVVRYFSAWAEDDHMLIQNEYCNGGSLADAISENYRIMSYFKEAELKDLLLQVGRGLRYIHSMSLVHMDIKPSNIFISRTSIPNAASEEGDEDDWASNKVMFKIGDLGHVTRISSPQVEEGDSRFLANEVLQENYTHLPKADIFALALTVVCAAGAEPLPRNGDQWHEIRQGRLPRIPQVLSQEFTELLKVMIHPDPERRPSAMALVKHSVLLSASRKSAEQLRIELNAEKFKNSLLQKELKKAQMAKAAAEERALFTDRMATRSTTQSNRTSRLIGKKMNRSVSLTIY

[7] = molecular target: Tyrosine-protein kinase Fes/Fps (Homo sapiens, UniProt P07332); experiment: Inhibition of FES (unknown origin) at 10 uM by Ambit Kinomescan binding assay relative to control; values are per cent of control
Tyrosine-protein kinase Fes/Fps, sequence (P07332 whole entry): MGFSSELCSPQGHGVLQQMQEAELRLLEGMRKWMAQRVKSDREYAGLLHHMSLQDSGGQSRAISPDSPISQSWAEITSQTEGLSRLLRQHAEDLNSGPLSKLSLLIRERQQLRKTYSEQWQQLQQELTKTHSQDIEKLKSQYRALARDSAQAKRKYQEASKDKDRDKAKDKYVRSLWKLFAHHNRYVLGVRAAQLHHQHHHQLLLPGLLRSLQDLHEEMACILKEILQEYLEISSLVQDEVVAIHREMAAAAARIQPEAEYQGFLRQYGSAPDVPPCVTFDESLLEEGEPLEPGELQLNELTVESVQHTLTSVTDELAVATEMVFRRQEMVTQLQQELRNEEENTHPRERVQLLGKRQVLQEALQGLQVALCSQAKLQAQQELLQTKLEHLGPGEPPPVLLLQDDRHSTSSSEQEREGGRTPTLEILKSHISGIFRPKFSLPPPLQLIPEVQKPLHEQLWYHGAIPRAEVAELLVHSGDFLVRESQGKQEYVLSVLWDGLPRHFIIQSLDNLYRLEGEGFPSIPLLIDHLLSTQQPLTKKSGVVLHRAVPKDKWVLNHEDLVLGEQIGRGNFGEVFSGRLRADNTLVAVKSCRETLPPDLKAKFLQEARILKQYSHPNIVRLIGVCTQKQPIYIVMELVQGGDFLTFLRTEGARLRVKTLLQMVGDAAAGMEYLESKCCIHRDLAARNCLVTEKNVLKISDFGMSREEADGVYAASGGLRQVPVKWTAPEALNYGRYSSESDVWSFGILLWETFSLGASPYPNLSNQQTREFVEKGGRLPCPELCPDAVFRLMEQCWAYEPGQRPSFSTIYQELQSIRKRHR

[8] = molecular target: T1, Dual specificity mitogen-activated protein kinase kinase 6 (Homo sapiens) (UniProt P52564); experiment: Inhibition of MAP2K6 ACT labeling site in human Huh-7 cells at 10 uM by KiNativ Profiling analysis relative to control; assay type: cell-based
T1 sequence (whole entry): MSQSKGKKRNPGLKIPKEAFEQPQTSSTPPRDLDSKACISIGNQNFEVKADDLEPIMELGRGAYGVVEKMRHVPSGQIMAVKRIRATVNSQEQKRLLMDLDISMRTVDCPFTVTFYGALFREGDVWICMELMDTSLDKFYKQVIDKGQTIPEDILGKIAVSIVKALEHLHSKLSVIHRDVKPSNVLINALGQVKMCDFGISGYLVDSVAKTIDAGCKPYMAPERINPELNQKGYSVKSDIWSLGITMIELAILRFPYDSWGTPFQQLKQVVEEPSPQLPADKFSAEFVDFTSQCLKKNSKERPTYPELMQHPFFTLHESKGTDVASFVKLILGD

[9] = molecular target: Serine/threonine-protein kinase 10 (Homo sapiens) (UniProt O94804); experiment: Inhibition of LOK Lys1 labeling site harbouring ETGALAAAKVIETK in human A-375 cells at 5 uM by KiNativ Profiling analysis relative to control; assay type: cell-based
[10] = Inhibition of MAP3K2/3 K2 labeling site in human Huh-7 cells at 1 uM by KiNativ Profiling analysis relative to control; settings: condition cancer
[11] = molecular target: Protein kinase C theta type (Homo sapiens) (UniProt Q04759); experiment: Inhibition of PRKCQ (unknown origin) at 10 uM by Ambit Kinomescan binding assay
[12] = molecular target: Ribosomal protein S6 kinase alpha-3 (Homo sapiens) (UniProt P51812); experiment: Inhibition of N-terminal RPS6KA3 kinase domain 1 (unknown origin) at 10 uM by Ambit Kinomescan binding assay
[13] = molecular target: Serine/threonine-protein kinase tousled-like 2 (Homo sapiens) (UniProt Q86UE8); experiment: Inhibition of TLK2 (unknown origin) at 1 uM by Ambit Kinomescan binding assay relative to control
[14] = molecular target: Tyrosine-protein kinase ABL1 (Homo sapiens, UniProt P00519); experiment: Inhibition of phosphorylated ABL1 (unknown origin) at 1 uM by Ambit Kinomescan binding assay relative to control; values are per cent of control
[15] = molecular target: Protein kinase C epsilon type (Homo sapiens) (UniProt Q02156); experiment: Inhibition of PRKCE (unknown origin) at 1 uM by Ambit Kinomescan binding assay relative to control; values are per cent of control
Protein kinase C epsilon type (Homo sapiens), sequence (Q02156 whole entry): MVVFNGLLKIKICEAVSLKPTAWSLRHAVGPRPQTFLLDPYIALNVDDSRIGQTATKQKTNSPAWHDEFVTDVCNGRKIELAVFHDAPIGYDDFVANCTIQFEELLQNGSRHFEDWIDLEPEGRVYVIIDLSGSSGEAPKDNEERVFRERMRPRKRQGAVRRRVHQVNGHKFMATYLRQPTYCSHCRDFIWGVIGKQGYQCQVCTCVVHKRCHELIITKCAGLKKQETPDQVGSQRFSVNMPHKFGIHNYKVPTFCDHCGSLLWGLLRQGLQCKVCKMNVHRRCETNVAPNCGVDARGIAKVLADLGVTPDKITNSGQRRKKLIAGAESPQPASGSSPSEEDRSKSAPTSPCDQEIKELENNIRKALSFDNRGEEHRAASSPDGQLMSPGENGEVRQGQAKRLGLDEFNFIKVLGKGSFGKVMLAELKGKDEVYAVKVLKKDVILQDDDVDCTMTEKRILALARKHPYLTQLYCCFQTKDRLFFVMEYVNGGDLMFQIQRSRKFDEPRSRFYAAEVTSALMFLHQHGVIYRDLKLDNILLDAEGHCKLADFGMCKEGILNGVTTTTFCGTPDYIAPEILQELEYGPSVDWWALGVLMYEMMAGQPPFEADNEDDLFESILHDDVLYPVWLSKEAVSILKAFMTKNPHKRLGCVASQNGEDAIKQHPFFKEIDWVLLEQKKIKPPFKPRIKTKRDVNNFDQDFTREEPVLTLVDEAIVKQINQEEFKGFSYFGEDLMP

[16] = molecular target: T2, Inhibitor of nuclear factor kappa-B kinase subunit beta (Homo sapiens) (UniProt O14920); experiment: Inhibition of IKKb Lys2 labeling site in human A-375 cells at 5 uM by KiNativ Profiling analysis relative to control; assay type: cell-based
T2 sequence (whole entry): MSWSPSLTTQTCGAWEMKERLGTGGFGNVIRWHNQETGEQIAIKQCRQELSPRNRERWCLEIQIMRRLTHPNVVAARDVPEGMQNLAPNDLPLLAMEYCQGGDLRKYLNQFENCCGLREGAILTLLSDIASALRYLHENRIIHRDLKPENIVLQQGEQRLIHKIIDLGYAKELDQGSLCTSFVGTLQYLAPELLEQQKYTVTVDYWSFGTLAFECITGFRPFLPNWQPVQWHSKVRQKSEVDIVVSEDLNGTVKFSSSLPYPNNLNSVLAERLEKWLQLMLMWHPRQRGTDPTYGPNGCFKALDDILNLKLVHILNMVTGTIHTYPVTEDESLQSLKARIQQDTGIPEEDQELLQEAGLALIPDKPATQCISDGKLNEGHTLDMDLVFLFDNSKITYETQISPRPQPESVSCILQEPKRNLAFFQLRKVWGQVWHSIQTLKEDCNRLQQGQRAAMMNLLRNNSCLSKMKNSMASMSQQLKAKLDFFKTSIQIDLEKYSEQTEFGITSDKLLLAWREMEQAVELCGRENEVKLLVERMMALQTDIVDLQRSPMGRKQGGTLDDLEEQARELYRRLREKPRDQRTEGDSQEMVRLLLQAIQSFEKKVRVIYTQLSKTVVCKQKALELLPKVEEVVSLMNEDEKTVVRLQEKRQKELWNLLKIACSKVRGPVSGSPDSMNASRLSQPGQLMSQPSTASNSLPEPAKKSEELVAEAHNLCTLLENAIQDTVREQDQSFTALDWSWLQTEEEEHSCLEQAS

[17] = molecular target: Serine/threonine-protein kinase Chk2 (Homo sapiens) (UniProt O96017); experiment: Inhibition of CHEK2 (unknown origin) at 1 uM by Ambit Kinomescan binding assay relative to control
[18] = molecular target: Protein kinase C iota type (Homo sapiens) (UniProt P41743); experiment: Inhibition of PRKCI (unknown origin) at 1 uM by Ambit Kinomescan binding assay relative to control; values are per cent of control
Protein kinase C iota type (Homo sapiens), sequence (P41743 whole entry): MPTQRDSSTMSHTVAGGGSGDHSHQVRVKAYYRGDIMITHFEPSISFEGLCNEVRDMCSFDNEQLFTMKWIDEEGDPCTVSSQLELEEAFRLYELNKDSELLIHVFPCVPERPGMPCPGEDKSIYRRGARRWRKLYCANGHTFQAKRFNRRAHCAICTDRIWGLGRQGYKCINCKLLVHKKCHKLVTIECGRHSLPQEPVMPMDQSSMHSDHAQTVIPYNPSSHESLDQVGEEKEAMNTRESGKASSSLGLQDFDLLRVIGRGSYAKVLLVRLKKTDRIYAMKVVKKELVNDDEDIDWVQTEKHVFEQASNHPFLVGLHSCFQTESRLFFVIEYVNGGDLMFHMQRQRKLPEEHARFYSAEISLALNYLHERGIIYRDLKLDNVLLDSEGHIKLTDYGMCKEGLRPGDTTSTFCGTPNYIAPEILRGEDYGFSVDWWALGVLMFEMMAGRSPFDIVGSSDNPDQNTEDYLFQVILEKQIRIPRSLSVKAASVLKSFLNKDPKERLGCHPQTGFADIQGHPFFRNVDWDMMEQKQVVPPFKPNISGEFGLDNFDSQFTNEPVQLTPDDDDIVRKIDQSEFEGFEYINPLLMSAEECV

Serine/threonine-protein kinase 10 (Homo sapiens), sequence (O94804 whole entry, looked up): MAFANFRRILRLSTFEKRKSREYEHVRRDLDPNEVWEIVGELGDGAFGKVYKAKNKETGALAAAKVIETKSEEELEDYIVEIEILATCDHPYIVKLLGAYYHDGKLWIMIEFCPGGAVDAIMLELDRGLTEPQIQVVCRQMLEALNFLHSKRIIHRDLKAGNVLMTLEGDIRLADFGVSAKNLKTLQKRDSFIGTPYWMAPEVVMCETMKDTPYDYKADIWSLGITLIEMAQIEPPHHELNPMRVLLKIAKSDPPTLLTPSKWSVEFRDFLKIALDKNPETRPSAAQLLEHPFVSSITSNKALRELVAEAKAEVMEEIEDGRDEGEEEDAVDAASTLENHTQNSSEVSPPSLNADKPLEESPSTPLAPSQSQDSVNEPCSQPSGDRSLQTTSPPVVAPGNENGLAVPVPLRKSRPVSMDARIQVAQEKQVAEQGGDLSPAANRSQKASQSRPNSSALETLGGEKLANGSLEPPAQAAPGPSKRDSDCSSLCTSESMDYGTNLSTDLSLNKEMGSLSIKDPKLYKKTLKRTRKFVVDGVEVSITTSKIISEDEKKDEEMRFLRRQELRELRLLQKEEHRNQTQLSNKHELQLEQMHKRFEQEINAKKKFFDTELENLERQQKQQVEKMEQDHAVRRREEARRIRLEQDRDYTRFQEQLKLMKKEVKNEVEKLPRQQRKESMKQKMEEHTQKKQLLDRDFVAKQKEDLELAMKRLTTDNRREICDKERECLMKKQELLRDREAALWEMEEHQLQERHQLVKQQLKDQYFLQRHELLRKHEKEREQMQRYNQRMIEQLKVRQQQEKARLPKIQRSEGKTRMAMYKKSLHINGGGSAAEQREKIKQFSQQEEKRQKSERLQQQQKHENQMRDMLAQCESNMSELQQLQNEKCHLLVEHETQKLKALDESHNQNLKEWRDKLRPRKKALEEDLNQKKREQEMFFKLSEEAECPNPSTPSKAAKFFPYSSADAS

Q: For `CNc1cc(Oc2cc(C(=O)Nc3cc(N4CCN(C)CC4)cc(C(F)(F)F)c3)ccc2C)ncn1`, which inhibition [1] is on record?
A: The inhibition was -8.9%.

Q: And the inhibition [2]?
A: Its inhibition is 2.8%.

Q: And the inhibition [3]?
A: The inhibition was 64.8%.

Q: With `CCN1CCN(Cc2ccc(NC(=O)c3ccc(C)c(Oc4ccnc5[nH]ccc45)c3)cc2C(F)(F)F)CC1` as the molecule, how does the residual activity [4] read?
A: The residual activity was 2.1%.

Q: And the residual activity [5]?
A: The residual activity was 0.2%.

Q: And the inhibition [6]?
A: Its inhibition is “inactive”.

Q: What about the percent of control [7] of the same molecule?
A: The percent of control was 2.2%.

Q: What about the inhibition [8] of the same molecule?
A: Its inhibition is 15.4%.

Q: And the inhibition [9]?
A: Its inhibition is 82.3%.

Q: And the inhibition at 1 µM [10]?
A: Its inhibition at 1 µM is 7.4%.

Q: And the inhibition [11]?
A: The inhibition was “inactive”.

Q: What about the inhibition [12] of the same molecule?
A: The inhibition was “inactive”.

Q: With `CCN1CCN(Cc2ccc(NC(=O)c3ccc(C)c(/C=C/c4cnc5[nH]ccc5c4OC)c3)cc2C(F)(F)F)CC1` as the molecule, how does the inhibition [13] read?
A: The inhibition was 100%.

Q: What about the % of control [14] of the same molecule?
A: The % of control was 0.7%.

Q: And the residual activity [15]?
A: Its residual activity is 62%.

Q: What about the inhibition [16] of the same molecule?
A: Its inhibition is 50.5%.

Q: And the inhibition [17]?
A: The inhibition was 82%.

Q: What about the residual activity [18] of the same molecule?
A: Its residual activity is 100%.
